# Laboratory results: patent publication US7879791B2 (Medical College of Georgia Research Institute, Inc., priority 1997, dated 2011)
# B1: CD40L: recombinant CD40L prepared as a homo-trimer to signal via CD40 in soluble form (protein, UniProt P29965 47-261, looked up)
# extracellular domain: HRRLDKIEDERNLHEDFVFMKTIQRCNTGERSLSLLNCEEIKSQFEGFVKDIMLNKEETKKENSFEMQKGDQNPQIAAHVISEASSKTTSVLQWAEKGYYTMSNNLVTLENGKQLTVKRQGLYYIYAQVTFCSNREASSQAPFIASLCLKSPGRFERILLRAANTHSSAKPCGQQSIHLGGVFELQPGASVFVNVTDPSQVSHGTGFTSFGLLKL
# modifications: extracellular domain soluble homo-trimer
# notes: recombinant CD40L prepared as a homo-trimer to signal via CD40 in soluble form
# B2: IFNγ: recombinant interferon gamma, inducer of IDO (protein, UniProt P01579 24-161, looked up)
# Interferon gamma: QDPYVKEAENLKKYFNAGHSDVADNGTLFLGILKNWKEESDRKIMQSQIVSFYFKLFKNFKDDQSIQKSVETIKEDMNVKFFNSNKKKRDDFEKLTNYSVTDLNVQRKAIHELIQVMAELSPAAKTGKRKRSQMLFRG
# Legend:
# [1] = test system: tryptophan transport system in MCSF-derived macrophages; assay: [3H]tryptophan uptake in MCSF-derived macrophages with competing unlabeled amino acids; assay type: cell-based, human; conditions: for effectiveness as competitor for tryptophan uptake compared with phenylalanine: titration studies
# Experimental: The graph compares fresh monocytes, MCSF-derived macrophages (day 7), and MCSF-derived macrophages activated for the preceding 24 hrs with IFNγ. All assays were performed in the presence of 140 mM NaCl. […] A logarithmic scale is used to permit comparison.
# Macrophages were cultured for 7 days in MCSF and activated during the last 24 hrs with IFNγ.
# This sodium-independent system was then characterized using cross-competition studies.
# [2] = test system: T cells; assay: T cell proliferation (thymidine incorporation) in co-culture conditioned medium with tryptophan titrated back; assay type: cell-based, human
# Experimental: FIG. 1 is a graph of thymidine incorporation (cpm) by T cells in the presence of supplemental amino acids. […] Human monocytes were allowed to differentiate into macrophages then co-cultured with mitogen-activated T cells (anti-CD3). Fresh PBMC were then suspended in this medium and activated with additional anti-CD3. […] Control cultures received fresh medium. Proliferation was measured by 4 hr thymidine incorporation after 72 hrs. Error bars show SD.
# Fresh lymphocytes were suspended in conditioned medium and activated with additional mitogen. Care was taken to exclude all traces of fresh medium.
# [3] = test system: MCSF-derived macrophages; assay: Elimination kinetics of tryptophan in co-cultures of MCSF-derived macrophages and mitogen-activated T cells; assay type: cell-based, human; conditions: when tryptophan was not limiting
# Experimental: MCSF-derived macrophages were cultured for 24 hrs with autologous T cells, with or without anti-CD3 mitogen. The medium was replaced with fresh medium, and supernatant from replicate cultures harvested at the times shown. […] Error bars (less than 10%) are omitted for clarity.
# Depletion of tryptophan is rapid. Macrophages were co-cultured with T cells and mitogen for 24 hrs to allow up-regulation of the tryptophan-depletion pathway, then fresh medium was added and the kinetics of elimination measured. […] This rapid rate of tryptophan depletion could not be attributed to consumption by cellular metabolism.
# [4] = patients / individuals, literature reports; cited from earlier work
# [5] = target: T1, IDO (Homo sapiens, UniProt P14902); assay: Macrophage-mediated suppression of T cell proliferation in co-cultures of MCSF-derived macrophages and T cells with anti-CD3; assay type: cell-based; parameters: endogenous in cells; host or cells: MCSF-derived human monocyte-derived macrophages co-cultured with T cells; conditions: 10x normal tryptophan
# Experimental: Proliferation was measured after 72 hrs by thymidine incorporation. The level of background proliferation contributed by macrophages is indicated by the dotted line. In FIG. 4B, macrophages were seeded at both low density (5×10^4/well) and high density (2×10^5/well).
# Target sequence in this assay (P14902 whole entry): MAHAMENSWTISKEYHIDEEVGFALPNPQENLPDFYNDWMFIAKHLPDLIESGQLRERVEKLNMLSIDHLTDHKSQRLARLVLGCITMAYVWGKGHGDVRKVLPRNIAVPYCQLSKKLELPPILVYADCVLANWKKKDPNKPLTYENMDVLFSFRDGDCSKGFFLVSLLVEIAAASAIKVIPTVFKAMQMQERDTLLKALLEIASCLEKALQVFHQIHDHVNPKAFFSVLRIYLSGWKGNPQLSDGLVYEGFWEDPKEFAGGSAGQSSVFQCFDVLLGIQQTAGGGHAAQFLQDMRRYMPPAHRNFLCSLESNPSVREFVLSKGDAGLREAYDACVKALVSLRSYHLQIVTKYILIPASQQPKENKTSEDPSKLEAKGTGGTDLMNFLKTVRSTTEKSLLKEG
# [6] = test system: MB49 tumor cells; assay: MB49 epithelial carcinoma in syngeneic hosts; assay type: in vivo, mouse
# Experimental: In light of the data herein showing that the allogeneic fetus is able to protect itself against attack by the maternal immune system through expression of IDO, and given the expression of IDO in tumors as cited above, it was tested whether a similar mechanism allowed tumor cells to evade immune attack. The MB49 epithelial carcinoma model was chosen for proof of concept because it is an aggressive, lethal malignancy when innoculated into syngeneic hosts, but it can be rendered susceptible to immune attack if the host's immune system is suitably activated (Chen, et al. 1997 J. Immunol. 159, 351-359). […] MB49 tumor cells (1×10^6) were injected subcutaneously into syngeneic C57/B16 hosts. […] By day 10, all animals had evidence of initial tumor formation (palpable mass). By day 15, control animals were visibly ill and the experiment was terminated. Animals were sacrificed on day 11-15 for histologic examination.
# [7] = test system: MCSF-derived macrophages; assay: Induction of IDO activity (tryptophan degradation) in MCSF-derived macrophages by IFNγ with or without CD40L; assay type: cell-based, human
# From the text: MCSF-derived macrophages were activated for 24 hrs with various concentrations of recombinant IFNγ, in the presence or absence of recombinant CD40-L trimer. […] SD was less than 10%.
# The response of MCSF-derived macrophages to IFNγ in the presence or absence of recombinant CD40L (prepared as a homo-trimer in order to signal via CD40 in soluble form, gift of Bill Fanslow, Immunex Corporation) was compared.
# [8] = target: T1, IDO; parameters: host or cells: tumor xenografts in IFNγ-treated animals; conditions: IFNγ-treated animals; cited from earlier work
# Target sequence in this assay (P14902 whole entry, species assumed): as the sequence (P14902 whole entry) above
# [9] = group n = 7, pellets 0.9 mg/hr, 7-day release
molecule,measurement,setting,value
N[C@@H](Cc1ccc(O)cc1)C(=O)O [Tyrosine],effectiveness as competitor for tryptophan uptake compared with phenylalanine,[1],even less effective competitors
N[C@@H](Cc1c[nH]c2ccccc12)C(=O)O [tryptophan],EC50,"[2]; Homo sapiens, T-cell, 72 h, read-out: half-maximal concentration for T cell proliferation",~500 nM
same,concentration sufficient to initiate low but readily detectable T cell proliferation,[2]; tryptophan in conditioned medium,50 nM
same,initial rate of tryptophan elimination,[3],"up to 20,000 pmol/10^6 cells/hr"
same,autoimmune or adverse illness reported,[4],multiple autoimmune disorders
same,reversal of suppression by supplemental tryptophan,[5]; high seeding density (2x10^5/well),remained able to suppress
same,reversal of suppression by supplemental tryptophan,[5]; low seeding density (5x10^4/well),effectively reversed suppression
N[C@@H](Cc1ccccc1)C(=O)O [phenylalanine],inhibition of tryptophan uptake by competing unlabeled amino acid,"[1]; 8 mM each, sodium-independent, FIG. 8B",could not fully block
CC(C)C[C@H](N)C(=O)O [leucine],effectiveness as competitor for tryptophan uptake compared with phenylalanine,[1],even less effective competitors
Cn1cc(C[C@H](N)C(=O)O)c2ccccc21 [1-methyl-tryptophan],continuation of responses after the period of inhibitor administration,[6]; administration days 1-7,4 to 7 days
same,histology (day 15),[6]; day 15,"apoptosis, necrosis,"
same,complete responses,[6]; [9],1
same,partial responses,[6]; [9],6
same,tumor growth compared to vehicle control,"[6]; immunocompetent, syngeneic hosts",significantly reduced tumor growth
same,performance status,"[6]; mouse, in vivo",normal
same,visible metastases,"[6]; mouse, in vivo",none
same,size of residual tumor,[6]; residual tumor necrotic,1 cm (necrotic)
CC(n1cc(C[C@H](N)C(=O)O)c2ccccc21)n1cc(C[C@H](N)C(=O)O)c2ccccc21 [1-1′ ethylidenebis-[tryptophan]],autoimmune or adverse illness reported,[4],eosinophilia-myalgia syndrome
N[C@@H](Cc1c[nH]c2ccc(O)cc12)C(=O)O [L-5-hydroxytryptophan],autoimmune or adverse illness reported,[4],high frequency of a scleroderma-like illness
"IFNγ: recombinant interferon gamma, inducer of IDO",IFNγ concentration at which significant response occurred,[7]; in the presence of CD40L,≥ 1 U/ml
same,concentration required for maximal induction of tryptophan degradation,"[7]; recombinant IFNγ alone, 24 hrs",≥ 100 U/ml
"NC1(C(=O)O)CC2CCC1C2 (centres unmarked) [BCH, 2-amino-2-norborane-carboxylic acid]",total tryptophan transport still available,[1]; system L inhibited by 8 mM BCH,30-50%
same,effectiveness as competitor for tryptophan uptake compared with phenylalanine,[1],even less effective competitors
B1,effect on enzyme activity,[7]; CD40L alone,little effect
same,shift of the dose-response curve of IFNγ,[7]; CD40L combined with IFNγ,one to two orders of magnitude
B2,reduction in tumor tryptophan compared to controls,[8],approximately 80%
